From US20230130766A1 (SALK INSTITUTE FOR BIOLOGICAL STUDIES, priority 2020, published 2023)

Molecular target: T1, ULK1 (Homo sapiens, UniProt O75385)
T1 sequence (O75385 1-1050): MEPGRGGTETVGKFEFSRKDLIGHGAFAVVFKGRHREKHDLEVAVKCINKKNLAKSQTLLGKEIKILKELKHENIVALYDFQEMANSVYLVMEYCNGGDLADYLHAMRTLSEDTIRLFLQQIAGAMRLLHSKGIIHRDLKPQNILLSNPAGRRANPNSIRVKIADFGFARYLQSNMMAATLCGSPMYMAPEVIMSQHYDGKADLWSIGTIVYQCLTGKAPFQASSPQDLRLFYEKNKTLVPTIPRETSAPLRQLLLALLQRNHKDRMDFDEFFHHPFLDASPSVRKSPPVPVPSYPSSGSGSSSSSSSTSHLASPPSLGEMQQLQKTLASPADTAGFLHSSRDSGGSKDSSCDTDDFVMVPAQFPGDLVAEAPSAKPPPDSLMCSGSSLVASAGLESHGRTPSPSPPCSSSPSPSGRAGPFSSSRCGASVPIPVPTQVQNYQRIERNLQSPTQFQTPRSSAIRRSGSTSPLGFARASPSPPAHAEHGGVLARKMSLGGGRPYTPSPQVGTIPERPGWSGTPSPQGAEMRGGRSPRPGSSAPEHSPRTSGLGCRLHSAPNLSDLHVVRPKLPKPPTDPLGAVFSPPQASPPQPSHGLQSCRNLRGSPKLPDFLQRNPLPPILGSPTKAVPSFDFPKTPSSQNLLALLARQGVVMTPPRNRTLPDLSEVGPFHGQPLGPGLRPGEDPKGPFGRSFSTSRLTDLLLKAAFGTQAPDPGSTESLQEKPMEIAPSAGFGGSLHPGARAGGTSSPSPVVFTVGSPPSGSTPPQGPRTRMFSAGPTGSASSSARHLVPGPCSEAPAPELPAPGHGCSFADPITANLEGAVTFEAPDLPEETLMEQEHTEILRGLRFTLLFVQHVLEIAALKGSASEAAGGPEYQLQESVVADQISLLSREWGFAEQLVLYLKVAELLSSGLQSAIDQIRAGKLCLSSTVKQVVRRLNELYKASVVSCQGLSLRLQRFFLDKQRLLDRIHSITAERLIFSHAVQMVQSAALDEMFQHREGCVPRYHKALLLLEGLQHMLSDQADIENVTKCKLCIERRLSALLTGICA
Assay: ULK1 inhibition assay
Format: biochemical
Conditions: * = tested as a mixture of regioisomers

IC50: < 200 nM
SMILES: CNC(=O)c1ccccc1Nc1nc(Nc2cc(OC)c(OC)c(OC)c2)ncc1Br [Compound 14]
